In patent publication US7063948B1, “Uses of antibodies against AChE and peptides thereof” (Yissum Research Development Company of the Hebrew …, priority 1999, dated 2006):

Test: Evans Blue dye penetration into brain after confined swim stress
Format: in vivo
Details: FIG. 6A
Description: The above results were confirmed in animal experiments.

Q: What does the source list for Cc1cc(-c2ccc(/N=N/c3ccc4c(S(=O)(=O)O)cc(S(=O)(=O)O)c(N)c4c3O)c(C)c2)ccc1/N=N/c1ccc2c(S(=O)(=O)O)cc(S(=O)(=O)O)c(N)c2c1O [Evans Blue]?
A: dye penetration into the brain (nonstressed control mice): very low levels; dye penetration into the brain (stressed mice): a large amount of the dye penetrates the brain
